The text below walks through data of US5025033A, “Alkylene diamines” (Takeda Chemical Industries, Ltd., priority 1988, dated 1991).

Read-outs that look alike come from different tables or passages of the source.

The nature of one data set: LD50 value, oral, mice. As to conditions: mouse, in vivo, p.o., ten mice per group. An excerpt: LD50 value Ten mice were used for each group. LD50 value was estimated with the dose (mg/kg, p.o.) which induced death in 50% of mice.
Data set [1] has as its system CO2-induced ammesia in mice. Description: Nootropic action: effect on CO2-induced amnesia in mice (passive avoidance response). The note with it: i.p., 30 min before the test, saline = 100, ** p < 0.01. Format: in vivo, mice (male ICR). The protocol:
Effect of the compounds (I) and (II) on impairment of passive avoidance response, induced by exposing mice to 100% CO2 gas, was evaluated. Male ICR mice (Japan Clea) aged 5 weeks were used. The experimental apparatus consisted of two compartments, and one illuminated chamber (9×9×25 cm) was connected to dark chamber (25×25×30 cm) with a guillotine door. Each mouse was placed in the illuminated compartment and then allowed to enter the dark one. When the mouse entered the dark chamber, the door was closed and AC 0.5 mA footshock was applied to the floor grid of the dark chamber. The mouse can memorize the experience receiving the uncomfortable stimulus for a few weeks. Next, the consolidation processes of memory were disturbed by an experimental manipulation: Each mouse was placed under the hypoxic condition by being placed into a 4l desiccator filled with 100% CO2 gas, immediately after receiving the footshock in the dark chamber. When his respiratory function was stopped, the mouse was taken out from the desiccator and given artificial respiration till recovering spontaneous respiration. This procedure disturbed the consolidation of the memory (experience of footshock). On the next day, a retention test was performed whether the mouse memorizes the footshock or not. In the test, the mouse was again placed in the illuminated compartment and the latency to enter the dark compartment was measured.
The mice subjected to hypoxia entered the dark compartment with short latency, 10-20 sec. […] The ameliorating effect of compounds on the amnesia induced by hypoxia was evaluated by the latency time, and was expressed as the percent change of the mean time of the vehicle-treated control group (Table 5.). The compounds were suspended in 5% arabic gum solution, and administered intraperitoneally (i.p.) 30 min. before the test.

Another data set addresses T1, Acetylcholinesterase (Rattus norvegicus, UniProt P37136).
T1 construct: the S1 fraction of a male Wistar rat cerebral cortex homogenate was used as a cholinesterase source; from tissue; host or cells: male Wistar rat cerebral cortex homogenate, S1 fraction
Description: Acetylcholinesterase inhibiting activity using (acetyl-[3H])-acetylcholine, S1 fraction of rat cerebral cortex homogenate. The data set is classed as biochemical, male Wistar rat. As for the experimental part: The compounds according to the invention were examined for cholinesterase inhibiting activity using (acetyl-[^3 H])-acetylcholine. Thus, the S1 fraction of a male Wistar rat cerebral cortex homogenate was used as a cholinesterase source, and (acetyl-[^3 H])-acetylcholine (as substrate) and each test compound according to the invention were added and, after 30 minutes of incubation, the reaction was terminated. A toluene type scintillator was added, and the mixture was shaken, whereby the reaction product [^3 H]-acetic acid was transferred to the toluene layer. The cholinesterase activity was determined by counting said [^3 H]-acetic acid with a liquid scintillation counter.
The cholinesterase inhibiting activity of each test compound was expressed in terms of 50% inhibitory concentration (IC50).

Another data set relates to mice. Description: General symptoms in mice (salivation, lachrymation, hypothermia). Also noted: key: +++: marked; ++: moderate; +: mild; non-detected. The data set is classed as in vivo. The note with it: 100 mg/kg orally; observed for 4 hours. The protocol: Four mice were used for each group. Mice were placed in stainless steel cages (13×18×25 cm) and after a 1-hr habituation period the compounds were administered. […] Peripheral and central effects of the compounds were estimated with the incidences of salivation and lachrymation, and a grade of hypothermia, respectively.
The compounds which were soluble in saline were dissolved in saline and the others were suspended in 5% arabic gum solution. Each compound was administered orally (100 mg/kg).
Scorings of the symptoms were made as follows.

Setting [2] is: rat cerebral cortex homogenate S1 fraction, 30 minutes of incubation, read-out: Acetylcholinesterase inhibiting activity IC50.

T1 sequence (P37136 32-614): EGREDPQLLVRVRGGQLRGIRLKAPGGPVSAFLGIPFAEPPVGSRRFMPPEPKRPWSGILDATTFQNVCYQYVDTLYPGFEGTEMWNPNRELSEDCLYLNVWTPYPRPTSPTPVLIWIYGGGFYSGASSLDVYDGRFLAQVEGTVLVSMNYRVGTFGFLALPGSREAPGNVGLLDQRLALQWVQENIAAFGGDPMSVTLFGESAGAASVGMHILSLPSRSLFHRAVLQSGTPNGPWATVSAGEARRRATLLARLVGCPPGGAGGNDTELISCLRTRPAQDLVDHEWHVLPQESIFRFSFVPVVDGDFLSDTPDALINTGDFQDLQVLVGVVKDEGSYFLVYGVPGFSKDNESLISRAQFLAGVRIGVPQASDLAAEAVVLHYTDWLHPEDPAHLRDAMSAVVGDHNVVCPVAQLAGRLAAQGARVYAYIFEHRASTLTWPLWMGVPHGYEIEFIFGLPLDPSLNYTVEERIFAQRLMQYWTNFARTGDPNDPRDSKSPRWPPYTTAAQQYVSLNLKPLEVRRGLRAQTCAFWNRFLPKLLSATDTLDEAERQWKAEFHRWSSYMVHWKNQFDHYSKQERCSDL

For `CNC(=O)Oc1ccc2c(c1)[C@]1(C)CCN(C)[C@@H]1N2C` [Physostigmine, physostigmine, reference compound], in the data set “LD50 value, oral, mice”, the LD50 – broadly, the dose at which mortality reaches 50% – was determined as 2.6 mg/kg. In addition, the “Anti-amnesia (latency, percent change of the mean time of the vehicle-treated control group)” value in data set [1] (0.3 mg/kg) is listed as 210%.

On to `CCN(CCCCCN1C(=O)c2ccc([N+](=O)[O-])cc2C1=O)Cc1ccccc1` [Compound 2-8], for which the IC50 (commonly the point on the concentration scale where inhibition reaches its midpoint) at Acetylcholinesterase (setting [2]) amounted to 150 nM. In “LD50 value, oral, mice”, this compound displayed an LD50 of 300 mg/kg. Besides, in the data set on mice, the Hypothermia result was “+”, the Lachrymation result was “++” and the Salivation result is reported as “+”. Moreover, the “Anti-amnesia (latency, percent change of the mean time of the vehicle-treated control group)” value in data set [1] (3 mg/kg) amounted to 326%.

In turn, `CCN(CCCCCN1C(=O)c2ccc(NC(C)=O)cc2C1=O)Cc1ccccc1` [Compound 11-1] came in with an IC50 against Acetylcholinesterase of 320 nM. Besides, the LD50 in the data set “LD50 value, oral, mice” was above 300 mg/kg. In addition, in the data set with mice, the Hypothermia result is “+”, the Lachrymation result is “++” and the Salivation entry is “-”. The “Anti-amnesia (latency, percent change of the mean time of the vehicle-treated control group)” value in data set [1] (1 mg/kg) was 455%.

Turning to `CCN(CCCCCNC(=O)/C=C/c1ccc([S+](C)[O-])cc1)Cc1ccccc1` (stereo not drawn) [Compound 14-21], the IC50 at Acetylcholinesterase (setting [2]) amounted to 7500 nM.

Consider `CCN(CCCCCN1C(=O)c2ccc([N+](=O)[O-])cc2C1=O)Cc1ccccc1C` [Compound 2-23], for which the IC50 on Acetylcholinesterase (setting [2]) turned out to be 110 nM.

On to `CCN(CCCCCN1C(=O)c2ccc(O)cc2C1=O)Cc1ccccc1` [Compound 12-4], for which the IC50 on Acetylcholinesterase (setting [2]) stood at 2500 nM.

Consider `CCN(CCCCCN(C(C)=O)C(=O)/C=C/c1cccc(OC)c1)Cc1ccccc1` [Compound 16-7], for which the IC50 at Acetylcholinesterase (setting [2]) was determined as 5800 nM.
